Experimental findings from PubChem BioAssay (NCI) are described below.

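Five concentrations, 48 hours, 96-well plates. The concentration for 50% growth inhibition is given as GI50. TGI: concentration producing complete growth inhibition.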

Some test systems named below: SNB-75 CNS; OVCAR-3 ovarian; HT29 colon; TK-10 renal; BT-549 breast; M14 melanoma; NCI-H522 lung; SF-295 CNS; HCT-15 colon; HCC-2998 colon.
Holding throughout (assay): DTP human tumour cell line panel, 48 h

Turning to `Cc1nn(-c2ccccc2)c2nc3c(nc12)C1=NCCN1C(c1ccc(Cl)cc1)N3` (stereo not drawn), the GI50 (commonly the concentration at which growth is held to half of that of the control) is 1.62 µM with SNB-75 CNS; 2.63 µM with OVCAR-3 ovarian; 2.5 µM with HT29 colon; 2.93 µM in the test on TK-10 renal; 12.6 µM in the test with BT-549 breast; 1.98 µM in the test on M14 melanoma. The GI50 is 2.83 µM in the test on NCI-H522 lung, 2.56 µM in the test with SF-295 CNS, 2.89 µM in the test on HCT-15 colon and 1.92 µM in the test with HCC-2998 colon. Also, the TGI – broadly, the concentration at which net growth stops – in the test on SNB-75 CNS stood at 6.25 µM; with OVCAR-3 ovarian, 7.18 µM; in the test with HT29 colon it was 5.96 µM; in the test with TK-10 renal, 7.18 µM; in the test with BT-549 breast it was 27.1 µM; with M14 melanoma, 3.86 µM. The TGI worked out at 7.14 µM with NCI-H522 lung, 8.24 µM in the test with SF-295 CNS, 9.75 µM with HCT-15 colon and 3.49 µM with HCC-2998 colon.

For `O=C1/C(=C/c2ccccc2F)CN(C(=O)C(Cl)Cl)C/C1=C\c1ccccc1F`, the GI50 with SNB-75 CNS is 0.572 µM; in the test on OVCAR-3 ovarian, 0.319 µM; in the test with HT29 colon, 0.271 µM; in the test with TK-10 renal, 1.61 µM; with BT-549 breast, 0.422 µM; in the test with M14 melanoma, 0.387 µM. In addition, the GI50 was 0.281 µM with NCI-H522 lung, 0.391 µM with SF-295 CNS, 0.217 µM in the test on HCT-15 colon and 0.696 µM in the test with HCC-2998 colon. Besides, the TGI turned out to be 1.95 µM in the test with SNB-75 CNS; 1.02 µM with OVCAR-3 ovarian; 1.06 µM in the test with HT29 colon; 3.02 µM with TK-10 renal; 1.44 µM in the test on BT-549 breast; 1.61 µM in the test with M14 melanoma. Moreover, the TGI in the test on NCI-H522 lung was 1.06 µM; in the test with SF-295 CNS, 1.52 µM; in the test with HCT-15 colon, 0.694 µM; in the test on HCC-2998 colon it was 1.96 µM.

On to `COc1cc(C2CC(c3ccccc3)=NN2C(C)=O)cc(OC)c1OC` (stereo not drawn), for which the GI50 is 1.74 µM in the test on SNB-75 CNS; 2.11 µM in the test with OVCAR-3 ovarian; 2.57 µM with HT29 colon; > 46.9 µM in the test on TK-10 renal; 6.37 µM in the test on BT-549 breast; 2.47 µM in the test with M14 melanoma. Besides, the GI50 was 5.53 µM in the test on NCI-H522 lung, 0.576 µM in the test with SF-295 CNS, 2.48 µM in the test with HCT-15 colon and 6.4 µM in the test with HCC-2998 colon. In addition, the TGI was 13.3 µM in the test with SNB-75 CNS; 6.52 µM in the test on OVCAR-3 ovarian; > 100 µM with HT29 colon; > 100 µM in the test on TK-10 renal; > 100 µM in the test with BT-549 breast; > 34.2 µM in the test on M14 melanoma. In addition, the TGI was > 100 µM in the test on NCI-H522 lung, 4.15 µM with SF-295 CNS, > 100 µM in the test with HCT-15 colon and > 74 µM in the test on HCC-2998 colon.

As to `COc1cc(-n2cnc(-c3ccc(Cl)cc3)c2)cc(OC)c1OC`, the GI50 in the test with SNB-75 CNS was 16.5 µM; in the test with OVCAR-3 ovarian, > 100 µM; in the test with HT29 colon, 16.1 µM; in the test on TK-10 renal, 15 µM; with BT-549 breast, 16.7 µM; with M14 melanoma, 73 µM. Further, the GI50 in the test on NCI-H522 lung is 15.6 µM; in the test on SF-295 CNS, 17.6 µM; with HCT-15 colon it was 16.8 µM; in the test with HCC-2998 colon it was 16.8 µM. Further, the TGI in the test on SNB-75 CNS is 34.8 µM; in the test with OVCAR-3 ovarian, > 100 µM; in the test on HT29 colon, 32.8 µM; in the test on TK-10 renal, 37.4 µM; in the test with BT-549 breast, 31.3 µM; with M14 melanoma, > 100 µM. Besides, the TGI worked out at 34.3 µM in the test with NCI-H522 lung, 38.1 µM in the test with SF-295 CNS, 36.3 µM in the test with HCT-15 colon and 30.4 µM in the test on HCC-2998 colon.

Consider `Cc1ccc(-c2nc(N)c(C#N)c3c2CCOc2c-3ccc3ccccc23)cc1`, for which the GI50 in the test with SNB-75 CNS was 5.02 µM; in the test on OVCAR-3 ovarian, 0.069 µM; in the test with HT29 colon it was 0.387 µM; with TK-10 renal, 0.469 µM; in the test on BT-549 breast, 3.85 µM; with M14 melanoma, 0.377 µM. Further, the GI50 in the test with NCI-H522 lung is 0.507 µM; with SF-295 CNS, 0.144 µM; with HCT-15 colon it was 0.0543 µM; in the test on HCC-2998 colon, 0.142 µM. The TGI was > 100 µM in the test on SNB-75 CNS; 1.86 µM in the test with OVCAR-3 ovarian; 54.1 µM in the test on HT29 colon; 13.6 µM in the test with TK-10 renal; 54 µM in the test with BT-549 breast; > 22.9 µM in the test on M14 melanoma. For the same compound, the TGI in the test on NCI-H522 lung was > 100 µM; in the test with SF-295 CNS it was 1.87 µM.

In the case of `CCn1c(-c2nonc2N)nc2cncc(C(=O)NCCNC)c21`, the GI50 was 0.246 µM in the test with SNB-75 CNS; > 23.9 µM with OVCAR-3 ovarian; 0.817 µM in the test on HT29 colon; 0.612 µM in the test with TK-10 renal; 3.13 µM in the test on BT-549 breast; 17.2 µM with M14 melanoma. Also, the GI50 with NCI-H522 lung was 13.1 µM; with SF-295 CNS, > 25 µM; in the test on HCT-15 colon, 5.98 µM; with HCC-2998 colon, 4.77 µM. Moreover, the TGI in the test with SNB-75 CNS is 6.61 µM; in the test on OVCAR-3 ovarian, > 25 µM; in the test with HT29 colon it was > 25 µM; in the test with TK-10 renal, 4.64 µM; in the test with BT-549 breast, > 22.3 µM; in the test with M14 melanoma it was > 25 µM. In addition, the TGI in the test with NCI-H522 lung, with SF-295 CNS, in the test on HCT-15 colon and in the test on HCC-2998 colon was > 25 µM throughout.

With `CC1(C)N=C(N)N=C(N)N1c1cccc(CCCCOc2ccccc2)c1`, the GI50 in the test with SNB-75 CNS was 0.195 µM; with OVCAR-3 ovarian it was 0.547 µM; with HT29 colon it was < 0.01 µM; in the test with TK-10 renal, 0.197 µM; with BT-549 breast it was 1.15 µM; in the test on M14 melanoma, 0.0958 µM. Besides, the 50% growth inhibitory concentration (GI50) in the test on NCI-H522 lung is 0.0614 µM; with SF-295 CNS, 0.34 µM; with HCT-15 colon it was 3.01 µM; in the test with HCC-2998 colon, 0.0775 µM. In addition, the total growth inhibition concentration (TGI) was 22.9 µM in the test on SNB-75 CNS; 21 µM in the test on OVCAR-3 ovarian; 15.7 µM in the test with HT29 colon; 62.6 µM in the test with TK-10 renal; 16.8 µM with BT-549 breast; > 41.3 µM with M14 melanoma. Moreover, the TGI in the test with NCI-H522 lung is 13.3 µM; in the test on SF-295 CNS, > 68.4 µM; in the test with HCT-15 colon it was > 100 µM; in the test on HCC-2998 colon it was 17.2 µM.

With `CC1OC(n2c3ccccc3c3c4c(c5c6ccccc6[nH]c5c32)C(=O)N(CCN2CCOCC2)C4=O)CC(O)C1O` (stereo not drawn), the GI50 was 0.729 µM with SNB-75 CNS; 4.36 µM with OVCAR-3 ovarian; 1.92 µM in the test on HT29 colon; 6.33 µM in the test on TK-10 renal; 2.83 µM in the test with BT-549 breast; 1.43 µM in the test with M14 melanoma. Further, the GI50 with NCI-H522 lung was 1.52 µM; with SF-295 CNS it was 1.61 µM; in the test on HCT-15 colon, 2.34 µM; in the test with HCC-2998 colon, 7.03 µM. Also, the TGI was 5.87 µM in the test with SNB-75 CNS; 12.2 µM in the test with OVCAR-3 ovarian; 9.91 µM in the test on HT29 colon; 13.8 µM in the test on TK-10 renal; 12.1 µM in the test on BT-549 breast; 5.95 µM with M14 melanoma. In addition, the TGI in the test on NCI-H522 lung was found to be 11.1 µM; in the test on SF-295 CNS, 6.23 µM; with HCT-15 colon it was 13.5 µM; with HCC-2998 colon it was 14 µM.
